Source: patent US20160333419A1, “GENE SIGNATURES ASSOCIATED WITH SENSITIVITY TO MDM2 INHIBITORS” (DAIICHI SANKYO COMPANY, LIMITED, priority 2014, published 2016)

Tested on: multi-cancer cell line panel
Test: OncoPanel cytotoxicity assay, whole panel summary
Format: cell-based, human
Description: This Example describes an evaluation of the effect of a representative small molecule MDM2i on the growth of cells in a multi-cancer cell line panel. In this Example, the MDM2 inhibitors used were Compound A and Compound B p-toluenensulfonate. The panel included 250 human cancer cell lines (OncoPanel™, Ricerca Biosciences, Painesville, Ohio) that were evaluated in a high content drug screening analysis. The relative IC50 values for the cell lines were determined.
Cells were grown in RPMI 1640, 10% FBS, 2 mM L-alanyl-L-Glutamine, 1 mM Na Pyruvate, or a special medium in a humidified atmosphere of 5% CO2 at 37° C. Cells were seeded into 384-well plates and incubated in a humidified atmosphere of 5% CO2 at 37° C. Test compounds were added 24 hours post cell seeding. At the same time, a time zero, untreated cell plate was generated as a control. After a 72 hour incubation period, cells were fixed and stained with nuclear dye to allow visualization of nuclei.
Compounds were serially diluted 3.16-fold and assayed over 10 concentrations of inhibitor in a final assay concentration of 0.1% DMSO from the highest test concentration specified in the sample information chapter. Automated fluorescence microscopy was carried out using a GE Healthcare InCell Analyzer 1000, and images were collected with a 4× objective. Twelve bit tiff images were acquired using the InCell Analyzer 1000 3.2 and analyzed with Developer Toolbox 1.6 software.
Cell proliferation was measured by the signal intensity of the incorporated nuclear dye. The cell proliferation assay output is referred to as the relative cell count. To determine the cell proliferation end point, the cell proliferation data output is transformed to percent of control (POC) using the following formula: […]
Relative cell count IC50 (IC50) is the test compound's concentration that produces 50% of the cell proliferation inhibitory response or 50% cytotoxicity level. IC50 values were calculated using nonlinear regression to fit data to a sigmoidal 4 point, 4 parameter One-Site dose response model, where: y (fit)=A+[(B−A)/(1+((C/x)̂D))]. […]

[1] = share of the cell lines of the panel

Structure (SMILES): CC[C@@H]1CNC2(CC2)CN1C(=O)[C@@H]1C[C@@H](F)CN1C(=O)C1=C(C(C)C)N2C(=N[C@@](C)(c3ccc(Cl)nc3)[C@H]2c2ccc(Cl)c(F)c2)S1 [Compound A, [(5R,6S)-5-(4-Chloro-3-fluorophenyl)-6-(6-chloropyridin-3-yl)-6-methyl-3-(propan-2-yl)-5,6-dihydroimidazo[2,1-b][1,3]thiazol-2-yl][(2S,4R)-2-{[(6R)-6-ethyl-4,7-diazaspiro[2.5]oct-7-yl]carbonyl}-4-fluoropyrrolidin-1-yl]methanone]
- IC50 (Homo sapiens, range over all cell lines of the panel, read-out: Cell line IC50 values ranged): ≥ 120 nM
- cell lines with IC50 values of <1 μM [1]: Approximately 25%
- cell lines with IC50 values of >10 μM [1]: approximately 70%
